Reference: PubChem BioAssay (NCI)
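Cells were grown in 96-well plates and exposed to each compound for 48 hours at five concentrations; endpoints were interpolated linearly between bracketing concentrations, or set to the highest concentration if not reached. At the TGI there is no net growth.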

Tests used:
Experiment in all cases: NCI tumour cell line growth inhibition, 48 h
[1] = tested on: 786-0 renal
[2] = tested on: A498 renal
[3] = tested on: A549 NSCLC
[4] = tested on: ACHN renal
[5] = tested on: BT-549 breast
[6] = tested on: CAKI-1 renal
[7] = tested on: CCRF-CEM leukemia
[8] = tested on: COLO 205 colon
[9] = tested on: DU-145 prostate
[10] = tested on: EKVX NSCLC
[11] = tested on: HCC-2998 colon
[12] = tested on: HCT-116 colon
[13] = tested on: HCT-15 colon
[14] = tested on: HL-60(TB) leukemia
[15] = tested on: HOP-62 NSCLC
[16] = tested on: HOP-92 NSCLC
[17] = tested on: HS 578T breast
[18] = tested on: HT29 colon
[19] = tested on: IGROV1 ovarian
[20] = tested on: K-562 leukemia
[21] = tested on: KM12 colon
[22] = tested on: LOX IMVI melanoma
[23] = tested on: M14 melanoma
[24] = tested on: MALME-3M melanoma
[25] = tested on: MCF7 breast
[26] = tested on: MDA-MB-231 breast
[27] = tested on: MDA-MB-435
[28] = tested on: MDA-N
[29] = tested on: MOLT-4 leukemia
[30] = tested on: NCI-H226 lung
[31] = tested on: NCI-H23 lung
[32] = tested on: NCI-H460 lung
[33] = tested on: NCI-H522 lung
[34] = tested on: NCI/ADR-RES ovarian
[35] = tested on: OVCAR-3 ovarian
[36] = tested on: OVCAR-4 ovarian
[37] = tested on: OVCAR-5 ovarian
[38] = tested on: OVCAR-8 ovarian
[39] = tested on: PC-3 prostate
[40] = tested on: RPMI-8226 leukemia
[41] = tested on: RXF 393 renal
[42] = tested on: SF-268 CNS
[43] = tested on: SF-295 CNS
[44] = tested on: SF-539 CNS
[45] = tested on: SK-MEL-2 melanoma
[46] = tested on: SK-MEL-28 melanoma
[47] = tested on: SK-MEL-5 melanoma
[48] = tested on: SK-OV-3 ovarian
[49] = tested on: SN12C renal
[50] = tested on: SNB-19 CNS
[51] = tested on: SNB-75 CNS
[52] = tested on: SR leukemia
[53] = tested on: SW-620 colon
[54] = tested on: T-47D breast
[55] = tested on: TK-10 renal
[56] = tested on: U251 CNS
[57] = tested on: UACC-257 melanoma
[58] = tested on: UACC-62 melanoma
[59] = tested on: UO-31 renal

In the case of `Cc1cc2[nH]c(Cl)c(/C=C3\C(=O)Nc4ccccc43)c2cc1O`, the TGI [1] is reported as > 37.8 µM, the TGI [2] is reported as 16.1 µM and the TGI [3] is reported as 21.6 µM. For the same compound, the TGI [4] was 21.6 µM, the TGI [5] was 25 µM and the TGI [6] was 19.7 µM. The TGI [7] was 9.32 µM, the TGI [8] was 30.1 µM and the TGI [9] was 12.9 µM. For the same compound, the TGI [10] was 18 µM, the TGI [11] was 16 µM and the TGI [12] was > 36.7 µM. The TGI [13] was 23.3 µM, the TGI [14] was 6.16 µM and the TGI [15] was 25.9 µM. For the same compound, the TGI [16] was 22.8 µM, the TGI [17] was > 100 µM and the TGI [18] was 19.5 µM. For the same compound, the TGI [19] was 10.9 µM, the TGI [20] was 18.8 µM and the TGI [21] was 17.1 µM. The TGI [22] was 40 µM, the TGI [23] was 17 µM and the TGI [24] was 16.3 µM. For the same compound, the TGI [25] was 16.5 µM, the TGI [26] was 15.9 µM and the TGI [27] was 1.18 µM. For the same compound, the TGI [28] was 1.97 µM, the TGI [29] was 32.9 µM and the TGI [30] was 4.31 µM. It also gave a TGI [31] of 10.5 µM, a TGI [32] of 15 µM and a TGI [33] of 4.66 µM. The TGI [34] was > 48.9 µM, the TGI [35] was 26.7 µM and the TGI [36] was 25.9 µM. For the same compound, the TGI [37] was 20.1 µM, the TGI [38] was 25.8 µM and the TGI [39] was 12.8 µM. It also gave a TGI [40] of 9.95 µM, a TGI [41] of 9.66 µM and a TGI [42] of 18.2 µM. It also gave a TGI [43] of 11.3 µM, a TGI [44] of 4.6 µM and a TGI [45] of 12.9 µM. For the same compound, the TGI [46] was 24.2 µM, the TGI [47] was 12.3 µM and the TGI [48] was 19 µM. It also gave a TGI [49] of 12.2 µM, a TGI [50] of 17.2 µM and a TGI [51] of 16.5 µM. The TGI [52] was 4.17 µM, the TGI [53] was 30.7 µM and the TGI [54] was > 56.9 µM. For the same compound, the TGI [55] was 23.5 µM, the TGI [56] was 14.4 µM and the TGI [57] was 23.6 µM. For the same compound, the TGI [58] was 9.08 µM and the TGI [59] was 17.8 µM.
Work on `CCOP(=O)(O)C(Nc1ccc(N=Nc2ccccc2)cc1)c1ccc(C(Nc2ccc(N=Nc3ccccc3)cc2)P(=O)(O)OCC)cc1` (stereo not drawn) yielded a TGI [1] of 78.5 µM, a TGI [2] of 64.8 µM and a TGI [3] of 88.7 µM. For the same compound, the TGI [4] was > 100 µM, the TGI [5] was 49.2 µM and the TGI [6] was > 100 µM. For the same compound, the TGI [7] was 41.6 µM, the TGI [8] was 28.8 µM and the TGI [9] was > 100 µM. The TGI [10] was 41 µM, the TGI [11] was 34.3 µM and the TGI [12] was 39.5 µM. It also gave a TGI [13] of 47.9 µM, a TGI [14] of 37 µM and a TGI [15] of 36.3 µM. The TGI [16] was 95.1 µM, the TGI [17] was 46.8 µM and the TGI [18] was 33.8 µM. It also gave a TGI [19] of 47.8 µM, a TGI [20] of 35.7 µM and a TGI [21] of 31 µM. It also gave a TGI [22] of 29.6 µM, a TGI [23] of 29.6 µM and a TGI [24] of 32.2 µM. The TGI [25] was > 100 µM, the TGI [26] was 90.9 µM and the TGI [27] was 32.4 µM. For the same compound, the TGI [28] was 40.8 µM, the TGI [29] was 37.2 µM and the TGI [30] was 99.2 µM. The TGI [31] was 64.2 µM, the TGI [32] was 50.3 µM and the TGI [33] was 37.6 µM. For the same compound, the TGI [34] was 73 µM, the TGI [35] was > 100 µM and the TGI [36] was > 100 µM. The TGI [37] was 53.7 µM, the TGI [38] was 31.4 µM and the TGI [39] was 35.7 µM. It also gave a TGI [40] of 53.8 µM, a TGI [41] of 49.3 µM and a TGI [42] of 42.9 µM. It also gave a TGI [43] of 35 µM, a TGI [44] of 38.2 µM and a TGI [45] of 32.8 µM. The TGI [46] was 33.5 µM, the TGI [47] was 30.7 µM and the TGI [48] was 36.8 µM. The TGI [49] was 46.3 µM, the TGI [50] was 41.2 µM and the TGI [51] was 34.5 µM. For the same compound, the TGI [52] was 42.6 µM, the TGI [53] was 38.2 µM and the TGI [54] was 47.1 µM. For the same compound, the TGI [55] was > 100 µM, the TGI [56] was 33.5 µM and the TGI [57] was 70.1 µM. The TGI [58] was 35 µM and the TGI [59] was > 100 µM.
